Measured values published in paper PMC6768323, “Adverse Maternal, Fetal, and Postnatal Effects of Hexafluoropropylene Oxide Dimer Acid (GenX) from Oral Gestational Exposure in Sprague-Dawley Rats” (Environmental Health Perspectives, 2019).
Values joined by “and” are separate entries in the source; they are usually repeats but may differ in a detail not shown here. Equal values may be shown once.

Assays:
[1] = test system: pregnant Sprague-Dawley rats; assay: Maternal serum thyroid hormones and lipid panel; assay type: in vivo
Method: Maternal serum samples from the first two blocks were analyzed for thyroid hormones and a standard lipid panel. Total triiodothyronine ( T3 ) and thyroxine ( T4 ) were quantified by radioimmunoassay (RIA) according to manufacturer specifications (IVD Technologies). […] Thyroid hormone RIA values were considered below detection when specific binding ( B/B0 ) was ≥90% ( 0.2 ng/mL for T3 and 2 ng/mL for T4 ) ([Sui and Gilbert 2003]). Serum total cholesterol, high-density lipoproteins (HDL), low-density lipoproteins (LDL), and triglycerides were quantified using a Beckman Coulter AU480 clinical chemistry analyzer (Beckman Coulter, Inc.) as per manufacturer’s protocol. All reagents were obtained from the instrument manufacturer except for the LDL assay, which was obtained from Diazyme Laboratories.

[2] = test system: pregnant Sprague-Dawley rats; assay: Dose-response analyses (EC5) versus maternal serum HFPO-DA concentration; assay type: in vivo
Method: Dose–response analyses for the in vitro transactivation assay data and the most sensitive in vivo end points and were conducted using four-parameter logistic regression in GraphPad Prism (constraint to bottom=0% , top=100% ). In vitro luminescence data was normalized to background (vehicle control), log10 transformed, and converted to percentage maximum response based on saturating levels of reference agonist. In vivo data were modeled as a function of log10 -transformed internal dose (i.e., dam serum HFPO-DA concentration from GD18), and response data was normalized to control and presented as a percentage. We estimated effect concentrations equivalent to a 5% deviation from control ( EC5 ). Reduction in maternal serum T3 concentration was modeled by ascribing a concentration of one-half of the detection limit (i.e., 0.1 ng/mL; detection limit of 0.2 ng/mL ) for the dose groups that were below the detection limit.

For `O=C(O)C(F)(OC(F)(F)C(F)(F)C(F)(F)F)C(F)(F)F` (stereo not drawn) [HFPO-DA, Hexafluoropropylene oxide dimer acid], the “serum total T3 in the top two dose levels” value ([1]; 250 and 500 mg/kg/d) was less than 0.2 ng/mL, the “Dam serum HDL” value ([1]; GD18, 1-500 mg/kg/d) was 36.3 ± 3.7 mg/dL and 36.0 ± 2.5 mg/dL and 33.0 ± 3.6 mg/dL and 37.0 ± 1.2 mg/dL and 36.7 ± 4.7 mg/dL and 28.7 ± 3.2 mg/dL and 19.3 ± 2.7 mg/dL and the “Dam serum LDL” value ([1]; GD18, 1-500 mg/kg/d) was 14.7 ± 0.9 mg/dL and 14.0 ± 1.2 mg/dL and 12.7 ± 0.9 mg/dL and 12.3 ± 1.9 mg/dL and 13.3 ± 1.9 mg/dL and 19.0 ± 3.2 mg/dL and 14.7 ± 0.3 mg/dL and 14.0 ± 0.6 mg/dL. For the same molecule, the “dose with lower maternal serum thyroid hormone and lipid profiles” value ([1]; oral GD14-18) was no less than 30 mg/kg, the “dose with significantly lower serum total T3” value ([1]; rat, in vivo) was no less than 30 mg/kg and the “dose with significantly lower serum triglycerides” value ([1]; rat, in vivo) was 500 mg/kg. For the same molecule, the “dose with significantly lower total T4 and LDL” value ([1]; rat, in vivo) was no less than 125 mg/kg, the “EC5, maternal serum T3” value ([2]; 5% deviation from control, maternal serum HFPO-DA) was 3.8 µg/mL and the “estimated maternal oral dose at T3 EC5” value ([2]; linear equation from Figure 5) was 8.2 mg/kg. For the same molecule, the “EC5, maternal liver Ehhadh expression” value ([2]; maternal serum HFPO-DA) was 14.1 µg/mL, the “EC5, maternal liver weight” value ([2]; maternal serum HFPO-DA) was 17.6 µg/mL and the “EC5, maternal serum T4” value ([2]; maternal serum HFPO-DA) was 17.8 µg/mL.
